Measurements published in PubChem BioAssay AID651979 (The Scripps Research Institute Molecular Screening Center, 2013).
Calls of active or inactive are those of the source. The rule behind the calls is not given here.

Experiments:
Test in all cases: PubChem AID 651979
[1] = target: Acyl-protein thioesterase 2 (Homo sapiens) (UniProt O95372); conditions: HEK293T SILAC ABPP, NHU5 probe, LC-MS/MS ratio; LYPLA2; at 5 µM; active compounds read low
[2] = tested on: DDHD1; conditions: HEK293T SILAC ABPP, NHU5 probe, LC-MS/MS ratio, at 5 µM, active compounds read low
[3] = target: Fatty acid synthase (Homo sapiens) (UniProt P49327); conditions: HEK293T SILAC ABPP, NHU5 probe, LC-MS/MS ratio; FASN; at 5 µM; active compounds read low
Fatty acid synthase (Homo sapiens), sequence (P49327 whole entry, looked up): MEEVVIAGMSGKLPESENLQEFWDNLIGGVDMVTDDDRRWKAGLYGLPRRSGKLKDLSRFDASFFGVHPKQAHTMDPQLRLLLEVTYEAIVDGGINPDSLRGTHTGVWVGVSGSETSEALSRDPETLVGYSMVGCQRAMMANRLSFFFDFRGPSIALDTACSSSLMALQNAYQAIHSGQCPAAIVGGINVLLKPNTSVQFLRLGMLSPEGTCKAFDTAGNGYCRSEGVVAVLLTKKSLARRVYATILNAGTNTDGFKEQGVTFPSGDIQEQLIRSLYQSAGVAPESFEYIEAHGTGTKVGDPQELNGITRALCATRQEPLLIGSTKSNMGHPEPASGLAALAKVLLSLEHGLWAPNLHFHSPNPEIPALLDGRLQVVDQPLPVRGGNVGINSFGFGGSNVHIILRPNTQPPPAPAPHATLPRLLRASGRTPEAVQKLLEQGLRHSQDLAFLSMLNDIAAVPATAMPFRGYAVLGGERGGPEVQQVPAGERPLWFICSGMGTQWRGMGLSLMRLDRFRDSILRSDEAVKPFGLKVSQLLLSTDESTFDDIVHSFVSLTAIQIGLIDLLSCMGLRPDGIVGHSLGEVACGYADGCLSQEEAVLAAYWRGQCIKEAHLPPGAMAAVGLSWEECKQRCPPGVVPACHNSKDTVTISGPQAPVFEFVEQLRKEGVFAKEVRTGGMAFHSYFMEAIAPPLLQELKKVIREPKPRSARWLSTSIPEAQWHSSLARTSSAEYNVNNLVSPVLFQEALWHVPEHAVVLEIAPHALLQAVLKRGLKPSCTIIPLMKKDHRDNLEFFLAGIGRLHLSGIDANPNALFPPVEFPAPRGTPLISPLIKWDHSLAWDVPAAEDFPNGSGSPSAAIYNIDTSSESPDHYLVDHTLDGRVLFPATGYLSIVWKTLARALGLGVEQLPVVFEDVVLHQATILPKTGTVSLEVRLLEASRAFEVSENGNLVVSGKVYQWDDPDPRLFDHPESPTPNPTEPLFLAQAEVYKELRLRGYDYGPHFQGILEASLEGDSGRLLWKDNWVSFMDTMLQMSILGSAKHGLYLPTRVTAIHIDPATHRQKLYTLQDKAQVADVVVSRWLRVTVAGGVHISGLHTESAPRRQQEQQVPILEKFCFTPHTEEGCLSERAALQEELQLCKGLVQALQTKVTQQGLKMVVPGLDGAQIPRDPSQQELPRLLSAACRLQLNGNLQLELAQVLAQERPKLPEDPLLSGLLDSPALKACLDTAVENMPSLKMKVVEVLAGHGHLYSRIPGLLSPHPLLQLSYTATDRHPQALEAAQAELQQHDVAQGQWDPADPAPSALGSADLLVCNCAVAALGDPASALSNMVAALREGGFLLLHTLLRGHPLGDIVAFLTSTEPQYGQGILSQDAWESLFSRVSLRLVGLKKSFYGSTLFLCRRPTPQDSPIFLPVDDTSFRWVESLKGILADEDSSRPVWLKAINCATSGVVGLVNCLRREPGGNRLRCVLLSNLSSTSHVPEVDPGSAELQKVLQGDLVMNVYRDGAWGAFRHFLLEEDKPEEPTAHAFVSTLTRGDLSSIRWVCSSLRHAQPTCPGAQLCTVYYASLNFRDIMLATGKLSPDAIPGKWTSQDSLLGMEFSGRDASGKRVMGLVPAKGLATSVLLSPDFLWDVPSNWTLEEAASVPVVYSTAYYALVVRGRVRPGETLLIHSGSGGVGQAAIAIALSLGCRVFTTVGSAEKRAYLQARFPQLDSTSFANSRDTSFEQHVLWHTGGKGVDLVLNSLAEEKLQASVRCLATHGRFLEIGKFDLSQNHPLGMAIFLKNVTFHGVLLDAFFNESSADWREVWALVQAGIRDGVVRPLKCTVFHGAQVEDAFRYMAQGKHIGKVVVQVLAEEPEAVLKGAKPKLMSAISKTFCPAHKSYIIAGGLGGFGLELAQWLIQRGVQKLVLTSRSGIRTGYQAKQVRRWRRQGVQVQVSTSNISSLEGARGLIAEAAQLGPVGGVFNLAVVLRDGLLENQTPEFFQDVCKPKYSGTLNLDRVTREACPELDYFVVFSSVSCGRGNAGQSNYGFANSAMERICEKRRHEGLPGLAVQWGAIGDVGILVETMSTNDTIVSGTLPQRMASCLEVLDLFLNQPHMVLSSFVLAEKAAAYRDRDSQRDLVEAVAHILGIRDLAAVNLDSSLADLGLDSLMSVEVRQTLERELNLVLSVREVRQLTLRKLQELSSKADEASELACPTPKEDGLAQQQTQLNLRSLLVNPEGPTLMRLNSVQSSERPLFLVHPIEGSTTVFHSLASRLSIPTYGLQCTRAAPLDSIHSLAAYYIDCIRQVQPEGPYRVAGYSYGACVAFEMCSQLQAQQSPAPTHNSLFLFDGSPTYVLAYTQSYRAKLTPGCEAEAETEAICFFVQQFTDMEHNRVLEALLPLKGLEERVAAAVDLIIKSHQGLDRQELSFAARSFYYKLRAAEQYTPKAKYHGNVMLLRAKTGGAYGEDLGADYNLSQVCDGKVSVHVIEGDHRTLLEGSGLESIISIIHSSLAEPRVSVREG

[4] = tested on: PLA2G4A; conditions: HEK293T SILAC ABPP, NHU5 probe, LC-MS/MS ratio, at 5 µM, active compounds read low
[5] = target: Acylamino-acid-releasing enzyme (Homo sapiens) (UniProt P13798); conditions: HEK293T SILAC ABPP, NHU5 probe, LC-MS/MS ratio; APEH; at 5 µM; active compounds read low
Acylamino-acid-releasing enzyme (Homo sapiens), sequence (P13798 whole entry, looked up): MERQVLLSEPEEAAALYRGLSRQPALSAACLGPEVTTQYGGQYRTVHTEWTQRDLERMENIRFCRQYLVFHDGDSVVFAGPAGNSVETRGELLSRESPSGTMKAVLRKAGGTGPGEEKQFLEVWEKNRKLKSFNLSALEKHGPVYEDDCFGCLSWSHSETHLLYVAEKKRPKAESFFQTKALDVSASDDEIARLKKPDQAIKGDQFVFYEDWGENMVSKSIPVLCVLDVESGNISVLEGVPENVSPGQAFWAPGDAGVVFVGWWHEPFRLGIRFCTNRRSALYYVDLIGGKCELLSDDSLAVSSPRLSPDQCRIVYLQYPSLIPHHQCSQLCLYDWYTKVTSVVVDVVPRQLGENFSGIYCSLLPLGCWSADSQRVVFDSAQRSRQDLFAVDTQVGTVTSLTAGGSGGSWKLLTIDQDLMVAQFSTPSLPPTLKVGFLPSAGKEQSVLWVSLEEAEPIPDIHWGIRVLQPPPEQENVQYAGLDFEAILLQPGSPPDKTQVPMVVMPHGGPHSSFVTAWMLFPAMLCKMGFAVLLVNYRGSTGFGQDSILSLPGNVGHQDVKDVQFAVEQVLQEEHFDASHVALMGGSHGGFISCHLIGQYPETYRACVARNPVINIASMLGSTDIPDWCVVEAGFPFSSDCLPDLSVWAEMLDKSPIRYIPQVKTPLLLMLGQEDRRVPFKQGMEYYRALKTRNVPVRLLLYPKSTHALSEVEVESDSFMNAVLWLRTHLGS

[6] = tested on: ABHD10; conditions: HEK293T SILAC ABPP, NHU5 probe, LC-MS/MS ratio, at 5 µM, active compounds read low
[7] = tested on: ABHD12; conditions: HEK293T SILAC ABPP, NHU5 probe, LC-MS/MS ratio, at 5 µM, active compounds read low
[8] = target: Protein phosphatase methylesterase 1 (Homo sapiens) (UniProt Q9Y570); conditions: HEK293T SILAC ABPP, NHU5 probe, LC-MS/MS ratio; PPME1; at 5 µM; active compounds read low
Protein phosphatase methylesterase 1 (Homo sapiens), sequence (Q9Y570 whole entry, looked up): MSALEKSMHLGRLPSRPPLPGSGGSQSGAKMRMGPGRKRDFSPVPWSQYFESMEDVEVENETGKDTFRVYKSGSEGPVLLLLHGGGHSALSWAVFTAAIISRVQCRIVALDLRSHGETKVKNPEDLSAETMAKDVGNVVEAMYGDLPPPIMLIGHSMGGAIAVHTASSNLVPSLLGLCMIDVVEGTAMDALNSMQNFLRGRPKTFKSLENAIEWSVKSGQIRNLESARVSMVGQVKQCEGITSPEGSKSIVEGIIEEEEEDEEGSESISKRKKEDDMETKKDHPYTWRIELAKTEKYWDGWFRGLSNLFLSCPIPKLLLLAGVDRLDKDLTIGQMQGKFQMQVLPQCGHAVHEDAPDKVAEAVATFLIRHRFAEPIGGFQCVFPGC

[9] = tested on: LYPLAL1; conditions: HEK293T SILAC ABPP, NHU5 probe, LC-MS/MS ratio, at 5 µM, active compounds read low
[10] = tested on: PNPLA6; conditions: HEK293T SILAC ABPP, NHU5 probe, LC-MS/MS ratio, at 5 µM, active compounds read low
[11] = tested on: ABHD6; conditions: HEK293T SILAC ABPP, NHU5 probe, LC-MS/MS ratio, at 5 µM, active compounds read low
[12] = tested on: TPP2; conditions: HEK293T SILAC ABPP, NHU5 probe, LC-MS/MS ratio, at 5 µM, active compounds read low
[13] = tested on: PNPLA8; conditions: HEK293T SILAC ABPP, NHU5 probe, LC-MS/MS ratio, at 5 µM, active compounds read low
[14] = tested on: PREP; conditions: HEK293T SILAC ABPP, NHU5 probe, LC-MS/MS ratio, at 5 µM, active compounds read low
[15] = target: Dipeptidyl peptidase 9 (Homo sapiens) (UniProt Q86TI2); conditions: HEK293T SILAC ABPP, NHU5 probe, LC-MS/MS ratio; DPP9; at 5 µM; active compounds read low
Dipeptidyl peptidase 9 (Homo sapiens), sequence (Q86TI2 whole entry, looked up): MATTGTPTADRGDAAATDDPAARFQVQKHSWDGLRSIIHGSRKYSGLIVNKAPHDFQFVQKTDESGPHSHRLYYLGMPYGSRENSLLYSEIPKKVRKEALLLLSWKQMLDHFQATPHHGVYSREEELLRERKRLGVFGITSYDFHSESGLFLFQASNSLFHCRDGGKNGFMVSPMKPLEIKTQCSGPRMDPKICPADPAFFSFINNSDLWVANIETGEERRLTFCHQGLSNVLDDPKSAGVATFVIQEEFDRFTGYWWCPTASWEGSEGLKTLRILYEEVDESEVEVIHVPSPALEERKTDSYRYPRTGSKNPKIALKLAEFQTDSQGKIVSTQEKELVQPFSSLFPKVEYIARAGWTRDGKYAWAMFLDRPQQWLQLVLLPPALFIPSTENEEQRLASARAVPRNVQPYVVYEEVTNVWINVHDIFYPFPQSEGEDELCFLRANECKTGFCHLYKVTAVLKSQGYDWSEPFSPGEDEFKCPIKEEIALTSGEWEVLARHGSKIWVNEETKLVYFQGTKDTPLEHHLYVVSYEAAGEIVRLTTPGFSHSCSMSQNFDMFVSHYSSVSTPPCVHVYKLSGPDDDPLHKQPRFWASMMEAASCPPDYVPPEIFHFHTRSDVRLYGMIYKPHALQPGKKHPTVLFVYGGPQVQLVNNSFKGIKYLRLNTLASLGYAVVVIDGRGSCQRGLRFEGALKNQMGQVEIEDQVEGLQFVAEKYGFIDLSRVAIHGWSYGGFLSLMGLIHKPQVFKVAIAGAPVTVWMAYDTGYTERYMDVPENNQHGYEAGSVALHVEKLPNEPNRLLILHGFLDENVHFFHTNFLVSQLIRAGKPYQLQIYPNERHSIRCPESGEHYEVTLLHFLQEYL

[16] = tested on: CTSA; conditions: HEK293T SILAC ABPP, NHU5 probe, LC-MS/MS ratio, at 5 µM, active compounds read low
[17] = target: Acyl-protein thioesterase 1 (Homo sapiens) (UniProt O75608); conditions: HEK293T SILAC ABPP, NHU5 probe, LC-MS/MS ratio; LYPLA1; at 5 µM; active compounds read low
Acyl-protein thioesterase 1 (Homo sapiens), sequence (O75608 whole entry, looked up): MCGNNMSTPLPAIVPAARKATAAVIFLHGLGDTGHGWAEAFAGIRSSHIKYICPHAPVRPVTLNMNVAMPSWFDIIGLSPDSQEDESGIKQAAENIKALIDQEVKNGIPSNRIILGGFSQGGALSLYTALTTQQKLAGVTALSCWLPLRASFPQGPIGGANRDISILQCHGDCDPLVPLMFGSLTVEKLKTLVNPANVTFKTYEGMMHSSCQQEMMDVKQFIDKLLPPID

[18] = tested on: ESD; conditions: HEK293T SILAC ABPP, NHU5 probe, LC-MS/MS ratio, at 5 µM, active compounds read low

Acyl-protein thioesterase 2 (Homo sapiens), sequence (O95372 whole entry, looked up): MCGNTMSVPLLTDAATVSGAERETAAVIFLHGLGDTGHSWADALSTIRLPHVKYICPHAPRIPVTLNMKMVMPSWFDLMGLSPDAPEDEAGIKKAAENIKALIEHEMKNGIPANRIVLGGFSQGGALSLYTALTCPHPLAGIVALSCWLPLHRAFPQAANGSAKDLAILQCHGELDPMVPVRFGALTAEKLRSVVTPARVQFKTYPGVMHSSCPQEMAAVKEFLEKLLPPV

SILAC ratio (compound/DMSO) [1]: 1.1 (inactive) | SILAC ratio (compound/DMSO) [2]: 1.06 (inactive) | SILAC ratio (compound/DMSO) [3]: 1.14 (inactive) | SILAC ratio (compound/DMSO) [4]: 1.43 (inactive) | SILAC ratio (compound/DMSO) [5]: 1.22 (inactive) | SILAC ratio (compound/DMSO) [6]: 1.1 (inactive) | SILAC ratio (compound/DMSO) [7]: 1.43 (inactive) | SILAC ratio (compound/DMSO) [8]: 1.08 (inactive) | SILAC ratio (compound/DMSO) [9]: 1.33 (inactive) | SILAC ratio (compound/DMSO) [10]: 1.2 (inactive) | SILAC ratio (compound/DMSO) [11]: 1.25 (inactive) | SILAC ratio (compound/DMSO) [12]: 1.1 (inactive) | SILAC ratio (compound/DMSO) [13]: 0.97 (inactive) | SILAC ratio (compound/DMSO) [14]: 1.1 (inactive) | SILAC ratio (compound/DMSO) [15]: 1.25 (inactive) | SILAC ratio (compound/DMSO) [16]: 1.17 (inactive) | SILAC ratio (compound/DMSO) [17]: 0.21 | SILAC ratio (compound/DMSO) [18]: 1.08 (inactive)
Compound: O=C(CN1CCN(C(=O)c2ccco2)CC1)Nc1cc(C(F)(F)F)ccc1Cl
